{
  "source": "patent US20100248978A1",
  "about": "“METHOD FOR IDENTIFYING THE INTERACTION PARTNER OF AN ACTIVE AGENT” (Bayer Cropscience AG, priority 2007, published 2010)",
  "origin": "cited, not measured here",
  "molecular_target": "T1, p-hydroxyphenylpyruvate dioxygenase (HPPD) (Arabidopsis thaliana, UniProt P93836)",
  "T1 sequence (P93836 1-445)": "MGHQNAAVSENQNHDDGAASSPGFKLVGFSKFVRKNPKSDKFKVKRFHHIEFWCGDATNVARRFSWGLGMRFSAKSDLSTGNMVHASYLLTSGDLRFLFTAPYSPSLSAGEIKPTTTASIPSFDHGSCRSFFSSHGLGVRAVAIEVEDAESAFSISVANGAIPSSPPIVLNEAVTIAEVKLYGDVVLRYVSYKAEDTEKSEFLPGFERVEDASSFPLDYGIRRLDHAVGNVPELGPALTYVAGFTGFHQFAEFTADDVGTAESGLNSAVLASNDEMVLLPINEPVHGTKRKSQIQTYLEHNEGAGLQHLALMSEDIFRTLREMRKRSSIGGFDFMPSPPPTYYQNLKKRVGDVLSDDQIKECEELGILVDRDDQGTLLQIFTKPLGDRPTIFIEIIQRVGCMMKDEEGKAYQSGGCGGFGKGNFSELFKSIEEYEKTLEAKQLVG",
  "data": [
    {"smiles": "CS(=O)(=O)c1ccc(C(=O)C2C(=O)CCCC2=O)c(Cl)c1", "note": "[sulcotrione]", "values": [
      {"measurement": "inhibition of HPPD", "value": "inhibits"}
    ]}
  ]
}
